Laboratory results taken from the NIST ThermoML archive (doi:10.1016/j.fluid.2012.06.013).

How the values were obtained:
[1] = Liquid; for mass density: 298.15 K, Vibrating tube method
[2] = refractive index (Na D-line) (dimensionless); details: 298.15 K; 101.33 kPa; Liquid; Standard Abbe refractometry
[3] = xn = mol fraction of the nth substance listed; details: 298.15 K, 101 kPa, Liquid, Vibrating tube method

CC(=O)OCC(C)C [2-methylpropyl ethanoate]
[1]
Details	Normal boiling temperature [°C]	mass density [kg/m3]
101.33 kPa	–	866.2
Ebulliometric method (Recirculating still)	116.29	–

Details	vapor or sublimation pressure [kPa]
[1], 461.03 K, Ebulliometric method (Recirculating still)	600

Details	refractive index
[2]	1.3882

CC(=O)OCC(C)C [2-methylpropyl ethanoate] + CC(C)O
[3]
Details	mass density [kg/m3]
x1 = 0.051	787.4
x1 = 0.126	796.2
x1 = 0.204	804.7
x1 = 0.235	807.9
x1 = 0.352	819.1
x1 = 0.407	824
x1 = 0.501	831.8
x1 = 0.549	835.6
x1 = 0.677	845.1
x1 = 0.752	850.3
x1 = 0.799	853.5
x1 = 0.868	857.9
x1 = 0.949	863.1
x1 = 1	866.2

CC(=O)OCC(C)C [2-methylpropyl ethanoate] + CCCO
[3]
Details	mass density [kg/m3]
x1 = 0.053	805.4
x1 = 0.092	809.3
x1 = 0.145	814.5
x1 = 0.196	819.1
x1 = 0.249	823.5
x1 = 0.302	827.6
x1 = 0.346	830.9
x1 = 0.444	837.6
x1 = 0.482	840
x1 = 0.508	841.6
x1 = 0.565	845
x1 = 0.613	847.7
x1 = 0.719	853.3
x1 = 0.751	854.9
x1 = 0.804	857.5
x1 = 0.854	859.8
x1 = 0.889	861.4
x1 = 0.909	862.3
x1 = 0.953	864.2
x1 = 1	866.2

CC(=O)OCC(C)C [2-methylpropyl ethanoate] + CCO
[3]
Details	mass density [kg/m3]
x1 = 0.09	799.8
x1 = 0.153	808.3
x1 = 0.22	816.2
x1 = 0.277	822.2
x1 = 0.349	828.9
x1 = 0.44	836.3
x1 = 0.563	844.8
x1 = 0.657	850.4
x1 = 0.742	854.9
x1 = 0.85	860
x1 = 0.898	862.1
x1 = 0.942	863.9
x1 = 1	866.2

CCO [ethanol]
Details	mass density [kg/m3]
[1], 101 kPa	785.2

Details	vapor or sublimation pressure [kPa]
[1], 405.53 K, Ebulliometric method (Recirculating still)	600

CCO [ethanol] + CC(=O)OCC(C)C
Details	mass density [kg/m3]
[3], x2 = 0	785.2

CCCO [propan-1-ol]
[1]
Details	Normal boiling temperature [°C]	mass density [kg/m3]
101.33 kPa	–	799.6
Ebulliometric method (Recirculating still)	97.29	–

[1]
Details	vapor or sublimation pressure [kPa]
313.98 K, Closed cell (Static) method	8
325.46 K, Closed cell (Static) method	14
331.28 K, Closed cell (Static) method	18
335.02 K, Closed cell (Static) method	22
339.49 K, Closed cell (Static) method	28
343.81 K, Closed cell (Static) method	34
347.33 K, Closed cell (Static) method	40
351.55 K, Closed cell (Static) method	48
353.46 K, Closed cell (Static) method	52
356.16 K, Closed cell (Static) method	58
359.07 K, Closed cell (Static) method	66
361.64 K, Closed cell (Static) method	72
363.69 K, Closed cell (Static) method	78
366.43 K, Closed cell (Static) method	88
367.86 K, Closed cell (Static) method	92
372.66 K, Closed cell (Static) method	110
374.63 K, Closed cell (Static) method	118
376.34 K, Closed cell (Static) method	126
378.84 K, Closed cell (Static) method	138
380.75 K, Closed cell (Static) method	148
382.61 K, Closed cell (Static) method	158
384.08 K, Closed cell (Static) method	166
385.46 K, Closed cell (Static) method	174
386.6 K, Closed cell (Static) method	182
387.29 K, Closed cell (Static) method	186
389.05 K, Closed cell (Static) method	198
390.26 K, Closed cell (Static) method	206
391.39 K, Closed cell (Static) method	214
393.67 K, Closed cell (Static) method	230
398.52 K, Closed cell (Static) method	260
406.65 K, Closed cell (Static) method	340
410.69 K, Closed cell (Static) method	382
414.02 K, Closed cell (Static) method	420
417.3 K, Closed cell (Static) method	460
418.84 K, Closed cell (Static) method	475
421.54 K, Closed cell (Static) method	512
423.55 K, Closed cell (Static) method	545
427.2 K, Ebulliometric method (Recirculating still)	600
427.98 K, Closed cell (Static) method	612
430.49 K, Closed cell (Static) method	655
432.23 K, Closed cell (Static) method	685
434.42 K, Closed cell (Static) method	722
436.33 K, Closed cell (Static) method	755
439.88 K, Closed cell (Static) method	825
441.78 K, Closed cell (Static) method	865
443 K, Closed cell (Static) method	890
444.97 K, Closed cell (Static) method	935
448.1 K, Closed cell (Static) method	1007
449.6 K, Closed cell (Static) method	1043
452.29 K, Closed cell (Static) method	1112
453.22 K, Closed cell (Static) method	1135
454.7 K, Closed cell (Static) method	1175
456 K, Closed cell (Static) method	1210
457.19 K, Closed cell (Static) method	1245
458.54 K, Closed cell (Static) method	1282
459.71 K, Closed cell (Static) method	1317
460.87 K, Closed cell (Static) method	1352
461.97 K, Closed cell (Static) method	1387
463.21 K, Closed cell (Static) method	1425
464.18 K, Closed cell (Static) method	1455
465.41 K, Closed cell (Static) method	1495
466.65 K, Closed cell (Static) method	1535
467.43 K, Closed cell (Static) method	1562
468.64 K, Closed cell (Static) method	1602
469.46 K, Closed cell (Static) method	1630

Details	refractive index
[2]	1.3837

CCCO [propan-1-ol] + CC(=O)OCC(C)C
Details	mass density [kg/m3]
[3], x2 = 0	799.6

CC(C)O [propan-2-ol]
[1]
Details	Normal boiling temperature [°C]	mass density [kg/m3]
101.33 kPa	–	781.3
Ebulliometric method (Recirculating still)	82.38	–

Details	vapor or sublimation pressure [kPa]
[1], 410.08 K, Ebulliometric method (Recirculating still)	600

Details	refractive index
[2]	1.3751

CC(C)O [propan-2-ol] + CC(=O)OCC(C)C
Details	mass density [kg/m3]
[3], x2 = 0	781.3
